Each structure is given as a SMILES string. Like-named read-outs stand apart in the source and are kept apart here.

Assay [1] deals with HCMV clinical strain TR-GFP. Description: microbe, parasite or virus in culture. Format: cell-based, Human cytomegalovirus. The conditions noted are these: Human betaherpesvirus 5, HFF. Here is the method: (§1) Drug effects were calculated as a percentage of reduction in GFPU in the presence of each drug concentration comported to the GFPU determined in the absence of drug. The dose-response curves were calculated using the GraphPad Prism 6 (GraphPad Software, USA),
(§2) In these experiments, the inventors determined the IC50 and IC90 values of respective BET bromodomain inhibitors against HCMV infection using fluorescence reduction assay (FIG. 9; Table 3) s.

Assay [2] deals with HCMV laboratory strain AD169-GFP. Description: microbe, parasite or virus in culture. It is filed as cell-based, Human cytomegalovirus. The conditions noted are these: Human betaherpesvirus 5, AD169, HFF. Here is the method: as §1, §2
For assay [3], the system named is HCMV. The assay is described as follows: Anti-HCMV activity in cultured primary human fibroblasts. It is filed as cell-based, Human cytomegalovirus.
Assay [4] has as its system HCMV. Description: Administration to a patient infected with HCMV (HCMV titers). It is filed as in vivo, Human cytomegalovirus. Here is the method:
A patient is infected with HCMV. A health practitioner administers an amount calculated to provide 1 μM of the bromodomain inhibitor GSK525762A by intraperitoneal injection. The patient's HCMV titers decrease.

For another assay, the system named is HCMV, strain AD169. Description: TCID50 assay of viral progeny in culture media, AD169-infected HFFs. It is filed as cell-based, Human cytomegalovirus. The following applies: for reduction of viral titer: 125 nM; for IC50: Human betaherpesvirus 5, AD169, 120 h. The procedure: In this experiment, the inventors used TCID50 assays to determine the amounts of infectious viral particle in culture supernatants release from HCMV-infected cells, HFFs were infected with HCMV, strain AD169, at an MOI of 3 in the presence of different concentrations of JQ1. Culture media was changed every 24 hours to maintain the concentration of JQ1. At 5 (FIG. 2A) and 6 (FIG. 2B) days post infection (DPI), infected culture media was collected and titers of viral progeny in media was determined by TCID50 assay as described by Perng et al., 2011. The detection limit is indicated by the dashed line. (FIG. 2)
HFFs were infected with HCMV, strain AD 169, at an MOI of 3 in the presence of JQ1 at the range of 0-2000 nM. Culture media was changed every 24 hours to maintain the concentration of JQ1. At 5 days post infection, viral titers were determined by TCID50. […] These calculated IC50 values are much lower than published values used in the treatment of cancer.

For assay [5], the system named is HCMV laboratory strain AD169-GFP. The assay is described as follows: TCID50 assay of culture supernatant (release of viral particles), AD169-GFP. The conditions noted are these: Human betaherpesvirus 5, AD169. Format: cell-based, Human cytomegalovirus. The procedure: (§3) In these experiments, the inventors used TCID50 assays to quantify the IC50 of (+)-JQ-1 in both HCMV laboratory-adapted and clinical strains (FIG. 9; Table 5). HFFs were infected with laboratory strain. AD169-GFP or laboratory strains FIXGFP & Toledo at an MOI of 3 in the presence of (+)-JQ-1 at the range of 0-2,000 nM. Culture media were changed every 24 hrs to maintain the concentration of JQ1. At 5 dpi, viral titers were determined by TCID50.

In assay [6] the test system is HCMV clinical strain FIX-GFP. The assay is described as follows: TCID50 assay of culture supernatant (release of viral particles), FIX-GFP. The following applies: Human betaherpesvirus 5. Format: cell-based, Human cytomegalovirus. Here is the method:
as §3

The test system of assay [7] is HCMV clinical strain Toledo. Description: TCID50 assay of culture supernatant (release of viral particles), Toledo. Format: cell-based, Human cytomegalovirus. The conditions noted are these: Human betaherpesvirus 5, MOI 3, 5 dpi. The procedure: as §3
Assay [8] concerns HCMV, strain AD169 infected human foreskin fibroblasts. The assay is described as follows: Phase-contrast/fluorescence microscopy of HCMV-infected HFF (cytomegaly morphology). Format: cell-based, Human cytomegalovirus. The conditions noted are these: 500 nm. The procedure: In these experiments, human foreskin fibroblasts (HFF) were infected with HCMV, strain AD169, at a multiplicity of infection (MOI) of 3 in the presence or absence of JQ1 […]. Culture media was changed every 24 hours to maintain the concentration of JQ1. Infected cells were examined by phase-contrast or fluorescence microscopy at 72 or 96 hours post infection (hpi). “Cytomegalic” cells appear larger in size with a characteristic intranuclear, homogenous, eosinophilic inclusion which can occupy the entire nucleus of the cell.

Assay [9] relates to HCMV late proteins (pp71, pp150 and pp28). The assay is described as follows: Immunoblot analysis of HCMV proteins in infected HFFs. Format: cell-based, Human cytomegalovirus. The conditions noted are these: MOI 3, different concentrations, 24, 48 and 72 hours post infection. The procedure:
The method is as described by Perng et al. 2011. HFFs were infected with HCMV, strain AD169, at an MOI of 3 in the presence of different concentrations of JQ1. Culture media was changed every 24 hours to maintain the concentration of JQ1. Cells were harvested at 24, 48 and 72 hours post infection, HCMV proteins, immediate-early protein (IE1), early protein (UL69), and late proteins (pp71, pp150 and pp28) were determined by immunoblot analysis. (FIG. 4)

The next assay deals with HCMV AD169 strain. Format: cell-based, Human cytomegalovirus.
The subject of assay [10] is HCMV clinical strain TR-GFP. It is filed as cell-based, Human cytomegalovirus.
Assay [11] has as its system HCMV laboratory strain AD169-GFP. The assay is described as follows: Time of addition assay on HCMV replication (GFP units). It is filed as cell-based, Human cytomegalovirus. The following applies: fixed concentration ~6.5×IC50, added at indicated hpi, GFP units after 7 days.
For assay [12], the system named is fatty acid synthase (FASN) and solute carrier family 38 member 5 (SLC38A5). The assay is described as follows: RNA-seq differential expression of FASN and SLC38A5 in HCMV-infected HFF. Format: cell-based, human. The following applies: 250 uM, MOI 3, 48 hpi. Here is the method: HFF cells were mock-infected or HCMV infected with laboratory strain AD169-GFP at a MOI of 3. (FIG. 12A) HFF cells were infected with AD169-GFP at a MOI of 3 in the presence or absence of […] (+)-JQ-1. (FIG. 12B) Cells from both (A) and (B) were harvested at 48 hpi and the total RNA was extracted using a column-based RNA purification kit (Qiagen). RNA integrity was evaluated with a Nano-drop spectrometer (NanoDrop, Wilmington, Del.). Messenger RNA purification, fragmentation, construction of sequencing library and sequencing were performed. The differential expression profiles of two c-Myc inducible genes, fatty acid synthase (FASN) and solute carrier family 38 member 5 (SLC38A5), were determined using an EdgeR procedure.

In assay [1], `COc1cc2c(cc1-c1c(C)noc1C)ncc1[nH]c(=O)n(C(C)c3ccccn3)c12` (stereo in doubt) [I-BET151, 7-(3,5-Dimethyl-1,2-oxazol-4-yl)-8-methoxy-1-[(1R)-1-(2-pyridinyl)ethyl]-1,3-dihydro-2H-imidazo[4,5-c]quinolin-2-one] displayed an IC50 of 110 nM and an IC90 of 160 nM. In [2], this molecule had an IC50 of 160 nM and an IC90 of 550 nM. For the same molecule, the “Concentration to inhibit HCMV replication” value with HCMV [3] lay in the range of 0.391 to 0.781 µM. Also, the “patient's HCMV titers” value in the assay with HCMV [4] (amount calculated to provide 0.5 μM, intraperitoneal injection) was “decrease”.

On to `Cc1sc2c(c1C)C(c1ccc(Cl)cc1)=N[C@@H](CC(=O)OC(C)(C)C)c1nnc(C)n1-2` [(+)-JQ1, 4-(4-chlorophenyl)-2,3,9-trimethyl-1,1-dimethylethyl ester-6H-thieno[3,2-f][1,2,4]triazolo[4,3-}{1,4}diazepine-6S-acetic acid], for which the IC50 in [1] was 39 nM; in assay [2], 77 nM; with HCMV, strain AD169 (read-out: IC50 (50% viral replication inhibitory concentration), AD169, MOI 3, 5 days post infection, calculated using four parameters) it was 21.6 nM; in the assay with HCMV, strain AD169 (read-out: IC50 (50% viral replication inhibitory concentration), AD169, MOI 3, 5 days post infection, calculated using three parameters) it was 17.8 nM; in [5], 18 nM; in [6] it was 18 nM. In assay [7], the IC50 was determined as 22 nM. Moreover, the IC90 stood at 93 nM in assay [1]; 210 nM in assay [2]; 49 nM in [5]; 31 nM in [6]; 37 nM in assay [7]. The “reduction of viral titer” value is “approximately 1000 fold” in the assay with HCMV, strain AD169 (5 days post infection) and “greater than 1000 fold” in the assay with HCMV, strain AD169 (6 days post infection). For the same molecule, the viral titer result with HCMV, strain AD169 (250 nM, 5 days post infection) is “further reduced the viral titer”; with HCMV, strain AD169 (250 nM, 6 days post infection), “undetectable”; in the assay with HCMV, strain AD169 (500 nM, 5 days post infection) it was “undetectable”; in the assay on HCMV, strain AD169 (500 nM, 6 days post infection), “undetectable”. Besides, the “morphology of infected HFF cells” value is “lost the “cytomegalic” morphology and an accumulation of dead cells was present” in [8] (MOI 3, 72 hours post infection); “lost the “cytomegalic” morphology and a greater accumulation of floating dead cells were present” in assay [8] (MOI 3, 96 hours post infection). For the same molecule, the “accumulation of HCMV late proteins” value in [9] is listed as “modestly inhibits”. The “production of infectious viral particles (electron micrographs)” value in the assay on HCMV AD169 strain is “blocks the production of infectious viral particles”. Further, the “production of infectious viral particles (EM analysis)” value in assay [10] is “blocks the production of infectious viral particles”. The “effect of the time of addition on HCMV replication” value (shortened to “effect of the time of addition”) in [11] was “block HCMV infections regardless of times post infection”. For the same molecule, in assay [12], the “up-regulation of FASN and SLC38A5 by HCMV infection” value is given as “up-regulation is reversed”. The “patient's HCMV titers” value in the assay on HCMV [4] (therapeutically effective amount, intraperitoneal injection) is listed as “decrease”.

In [2], `CCOC(=O)Nc1cc(-c2ccc(C)c(NS(C)(=O)=O)c2)nn2c(C)nnc12` [Bromosporine, N-[6-(3-methanesulfonamido-4-methylphenyl)-3-methyl-[1,2,4]triazolo[4,3-b]pyridazin-8-yl]carbamate] showed an IC50 of 290 nM and a 90% effect concentration (IC90) of 640 nM.

As to `Cc1sc2c(c1C)C(c1ccc(Cl)cc1)=N[C@@H](CC(N)=O)c1nnc(C)n1-2` [CPI-203, (S)-2-(4-(4-chlorophenyl)-2,3,9-trimethyl-6H-thieno [3,2-f][1,2,4]triazolo[4,3-a][1,4]diazepin-6-yl)acetamide], in assay [2], the IC50 worked out at 40 nM and it took 140 nM to reach the 90% level (IC90).

For the molecule `Nc1ccn(C[C@@H](CO)OCP(=O)(O)O)c(=O)n1` [Cidofovir], in assay [2], the IC50 worked out at 150 nM and it took 1080 nM to reach the 90% level (IC90).

In assay [2], `Nc1nc(O)c2ncn(COC(CO)CO)c2n1` [Ganciclovir] registered an IC50 of 1780 nM and an IC90 of 25000 nM.

As for `CCNC(=O)C[C@@H]1N=C(c2ccc(Cl)cc2)c2cc(OC)ccc2-n2c(C)nnc21` [I-BET762, 2-[(4S)-6-(4-chlorophenyl)-8-methoxy-1-methyl-4H-[1,2,4]triazolo[4,3-a][1,4]benzodiazepine-4-yl]-N-ethylacetamide], the “effect of the time of addition” value in [11] is listed as “block HCMV infections regardless of times post infection”. In the assay with HCMV [4] (amount calculated to provide 1 μM, intraperitoneal injection), the “patient's HCMV titers” value is “decrease”.

In assay [2], `COc1cccc(N2CCN(C3=Nc4c(F)cccc4[C@H](CC(=O)O)N3c3cc(C(F)(F)F)ccc3OC)CC2)c1` [Letermovir] gave an IC50 of 4.1 nM and an IC90 of 5.8 nM. Also, the “effect of the time of addition” value in assay [11] is listed as “cannot control the viral infection after 48 hours post-infection”.

`Cc1sc2c(c1C)C(c1ccc(Cl)cc1)=N[C@@H](CC(=O)Nc1ccc(O)cc1)c1nnc(C)n1-2` [OTX-015, (S)-2-[4-(4-chlorophenyl)-2,3,9-trimethyl-6H-thieno [3,2-f][1,2,4]triazolo-[4,3-a][1,4]diazepin-6-yl]-N-(4-hydroxyphenyl)acetamide]: the IC50 was 29 nM in assay [1] and 69 nM in assay [2]. Besides, the IC90 in [1] stood at 85 nM; in assay [2], 210 nM. Besides, the “effect of the time of addition” value in [11] is given as “block HCMV infections regardless of times post infection”. Besides, in the assay with HCMV [4] (therapeutically effective amount, oral administration), the “patient's HCMV titers” value is listed as “decrease”.

In assay [1], `COc1ccccc1S(=O)(=O)Nc1ccc2c(c1)CN(C)C(=O)N2` [PFI-1, 2-Methoxy-N-(3-methyl-2-oxo-1,2,3,4-tetrahydro-6-quinazolinyl)benzenesulfonamide] showed an IC50 of 420 nM and an IC90 of 1220 nM. In addition, in assay [2], the IC50 was determined as 790 nM and the IC90 stood at 2560 nM.

In assay [1], `COc1cc(OC)c2c(=O)[nH]c(-c3cc(C)c(OCCO)c(C)c3)nc2c1` [RVX-208, 2-[4-(2-hydroxyethoxy)-3,5-dimethyl-phenyl]-5,7-dimethoxy-3H-quinazolin-4-one] showed an IC50 of 3160 nM and an IC90 of 6670 nM. In assay [2], this molecule yielded an IC50 of 7930 nM and an IC90 of 31100 nM. Moreover, in the assay with HCMV [3], the “Concentration to inhibit HCMV replication” value fell in the range of 14.063 to 28.125 µM. In addition, the “patient's HCMV titers” value with HCMV [4] (amount calculated to provide 19 μM, intraperitoneal injection) is listed as “decrease”.

In general, IC90 refers to the point of the concentration-response curve where the effect stands at 90%.
